# Test results taken from PubChem BioAssay AID449764 (Southern Research Specialized Biocontainment Screening …, 2010).
# Test system: Mycobacterium tuberculosis H37Rv growth inhibition, no glycerol
# Assay: Confirmatory growth inhibition assay, Mycobacterium tuberculosis H37Rv, absence of glycerol (AID 449764);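 also: growth read after 7 days of incubation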
# Settings: for IC90: measured here: IC90 growth inhibition
Structure (SMILES),IC50,IC90
O=C(/C=C/c1ccc(O)c([N+](=O)[O-])c1)c1ccc2ccccc2c1,24 µM,> 100 µM
COc1cnc(-c2ccccn2)nc1Oc1ccc(Cl)c2ccccc12,0.67 µM,1.38 µM
Cc1c(Cl)ccc2c1NC(=O)[C@]21N[C@@H](Cc2ccccc2)[C@H]2C(=O)N(c3ccc(F)cc3)C(=O)[C@H]21,23.4 µM,26.6 µM
COCCn1nnnc1C(c1cc2cc(OC)ccc2[nH]c1=O)N1CCC(Cc2ccccc2)CC1 (configuration not stated),89.8 µM,> 100 µM
Cc1nc(NCCc2ccccc2)c2oc3ccccc3c2n1,7.3 µM,13.3 µM
CCCn1c(CC)nc([N+](=O)[O-])c1S(=O)(=O)c1ccccc1,18.2 µM,23.6 µM
COC(=O)c1ccc2c(=O)[nH]c(CSc3nc(C)cs3)nc2c1,71.2 µM,> 100 µM
Cc1cc2oc3ccc(NCCCn4ccnc4)cc3c(=O)c2cc1C,23.2 µM,25.7 µM
Cc1nc(-c2ccccc2)sc1C(=O)/C=C/c1ccccc1,12.4 µM,13.6 µM
Cc1cccc(C)c1Nc1c(-c2ccccn2)nc2ccccn12,5.93 µM,8.59 µM
CCCCCCCNC(=O)c1ccc(N2CCC3(CC2)OCCO3)c([N+](=O)[O-])c1,48.3 µM,67.2 µM
CC(C)(C)NC(=O)C(=O)NNC(=O)c1ccc(C(C)(C)C)cc1,14.4 µM,> 100 µM
COc1cccc(-n2nnc3c(=O)n(CC(=O)N4CCC(Cc5ccccc5)CC4)cnc32)c1,51.2 µM,> 100 µM
CC(C)C1N=C(c2ccc3c(c2)OCO3)CC(c2ccccc2O)N1 (configuration not stated),44.7 µM,50.9 µM
Cc1ccc(C(c2nnnn2Cc2cccs2)N2CCN(Cc3ccc4c(c3)OCO4)CC2)cc1 (configuration not stated),24.3 µM,38 µM
Cc1ccc(C(C(=O)NCC2CCCO2)N(Cc2ccccc2)C(=O)c2ccc(-c3ccccc3)[nH]2)o1 (configuration not stated),60.9 µM,> 100 µM
CC(C)=CCOc1ccc([C@@H]2COc3c(ccc4c3C=CC(C)(C)O4)C2)c(O)c1,25.4 µM,43 µM
COc1ccc(C(CC(=O)c2ccccc2)S(=O)(=O)c2ccc(C)cc2)cc1 (configuration not stated),56.3 µM,92.2 µM
CO/N=C(\Cn1ncc(N2CCCC2)c(Cl)c1=O)c1ccc(Cl)cc1,23.7 µM,26.9 µM
Cc1c(CN2CCC(CO)(Cc3cccc(C(F)(F)F)c3)CC2)c2ccccc2n1C,31.2 µM,39.6 µM
COc1cccc(-c2cc3nc4c(c(NCC(C)(C)CN(C)C)n3n2)CCCC4)c1,27.5 µM,36.3 µM

Structure (SMILES),IC50,IC90
Cn1/c(=N/NC(=O)c2cccc(OC(F)F)c2)sc2ccccc21,9.17 µM,24.1 µM
CCOC(=O)c1sc2ncnc(NCC(c3cccs3)N(C)C)c2c1C (configuration not stated),42 µM,57 µM
O=C(NC1CCCC(C(F)(F)F)C1)c1ccc([N+](=O)[O-])o1 (configuration not stated),17.9 µM,28.3 µM
CCCCCC(=O)N/N=C(\C)c1ccccn1,29 µM,38.9 µM
Cc1cc(C)c(CSc2ncc(-c3ccc([N+](=O)[O-])cc3)[nH]2)c(C)c1,36.9 µM,53.4 µM
Cc1ccccc1-n1c(SCC(=O)N/N=C/c2c(C)nn(-c3ccccc3)c2C)nc2ccccc2c1=O,4.6 µM,6.27 µM
O=C(NC(=S)Nc1ccc(N2CCCCC2)c(Cl)c1)c1cccs1,21.2 µM,29.2 µM
Oc1ccccc1/C=N/NC(=S)NC1CC2CC1C1C=CCC21 (configuration not stated),11.9 µM,18 µM
Cn1cnc([N+](=O)[O-])c1Sc1ccc(Br)cc1,19.6 µM,26.1 µM
O=c1oc(-c2cccs2)nc2c1cnn2-c1ccccc1,–,> 100 µM
Clc1ccc(Nc2ccc(-n3ccnc3)nn2)cc1Cl,21.9 µM,24.8 µM
Cc1cc2c(N=O)c(NO)ccc2[nH]1,11.9 µM,18.2 µM
CC(C)c1ccc(N2C(=O)NC(=O)/C(=C\C=C\c3ccco3)C2=O)cc1,44.5 µM,49.7 µM
OC(COC(c1ccc(Cl)cc1)c1ccc(Cl)cc1)CN1CCc2ccccc2C1 (configuration not stated),20.7 µM,27.6 µM
CC(=O)C1=C(C)NC(SCC(=O)c2ccc(F)cc2)=C(C#N)C1c1ccco1 (configuration not stated),32.7 µM,49.8 µM
C[CH2][Hg][S]c1ccccc1C(=O)O,0.52 µM,1.26 µM
COc1ccc2nc(N=NC3=C(O)CC(C)(C)CC3=O)sc2c1,13.5 µM,17.2 µM
CC(=O)Oc1ccc(/C=N\NC(=O)c2cc3c(ccc4ccccc43)o2)cc1,–,> 100 µM
O=C1NCN(c2ccccc2)C12CCN(CCCC(c1ccc(F)cc1)c1ccc(F)cc1)CC2,43.2 µM,49.2 µM
CCOC(=O)c1nc2sc3c(c2c(=O)[nH]1)CCC(C)C3 (configuration not stated),69.8 µM,> 100 µM
CCNCC(=O)N1c2ccccc2CCc2ccc(NC(=O)OC(C)C)cc21,53.7 µM,77 µM

Structure (SMILES),IC50,IC90
COC(=O)c1ccc(-n2cnc3ccccc32)nc1,17.7 µM,39.5 µM
O=C1CC(/C=C/c2ccc(Cl)cc2)=Nc2ccccc2N1,12.2 µM,14.2 µM
Cc1ccccc1N1CCN(C(=O)c2ccc(Oc3ccc(C(F)(F)F)cn3)cc2)CC1,30.2 µM,54.6 µM
O=C(C1=C[C@@H](c2csc3ccccc23)C[C@@H](OCCCCO)O1)N1CCN(Cc2ccc3c(c2)OCO3)CC1,33.9 µM,53.6 µM
COc1ccc(C2(c3ccc(OC)cc3)NC(=O)N(CC(=O)Nc3ccc(OC(F)F)cc3)C2=O)cc1,25 µM,53.9 µM
Cc1c(CCC(=O)NCCCn2ccnc2)c(=O)oc2c(C)c3occ(C(C)(C)C)c3cc12,28 µM,37.6 µM
Cc1nc2scc(-c3cccs3)c2c(=O)n1-n1cccc1,88.7 µM,> 100 µM
Cn1cnnc1SCc1ccc(C(=O)N=Nc2c(O)n(Cc3ccc(Cl)cc3)c3ccccc23)cc1,3.04 µM,3.38 µM
CCCCn1c(SCc2ncc(-c3ccccc3)o2)nc2cc(S(N)(=O)=O)ccc21,5.25 µM,8.34 µM
CC(C)NC(=O)c1sc(=S)n2c1[nH]c(=O)c1ccc(C(=O)NCCc3ccc(Cl)cc3)cc12,0.73 µM,0.83 µM
c1ccc(Nc2nc(N3CCCCC3)nc(N3CCNCC3)n2)cc1,44.4 µM,69.4 µM
c1ccc(-c2nnc(-c3ccccn3)nn2)nc1,6.07 µM,6.86 µM
COC(=O)CSc1[nH]c2ccc(Br)cc2c1[N+](=O)[O-],15.1 µM,25 µM
Cc1cc2c(cc1C)CSC(c1c(O)ccc3ccccc13)SC2,61.2 µM,> 100 µM
COc1ccc(/C=C/CN2CCC(CO)(Cc3ccccc3Cl)CC2)cc1,24.3 µM,27.5 µM
C/C(=N\NC(=S)NCC(C)(C)C)c1cc(F)cc(F)c1O,9.33 µM,37.1 µM
CCn1nc(NC(=O)c2ccncc2)c2cc3cc(C)ccc3nc21,4.7 µM,> 100 µM
O=[N+]([O-])c1ncccc1Oc1nc(-c2cccnc2)nc2ccccc12,0.82 µM,3.87 µM
COc1ccc2c(c1)CCc1c(C(=O)Nc3c(C)n(C)n(-c4ccccc4)c3=O)noc1-2,89.6 µM,> 100 µM
COc1ccc(C(C)=O)cc1COC(=O)c1ccc2ccccc2n1,60.3 µM,> 100 µM
